Like-named read-outs stand apart in the source and are kept apart here.
Assays:
Assay type in all cases: in vivo
[1] = test system: Pharbitis purpurea (PHBPU); assay: Post-emergence herbicidal action against PHBPU
Procedure, shortened: (§1)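 Values are percent visual activity (0% like control, 100% plants dead) after about 3 weeks in the greenhouse. Treatment: post-emergence spray at one-leaf stage, 600 l/ha spray volume, 0.5% additive, doses 320 g/ha or lower.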

Viola tricolor (VIOTR) [2] = assay: Pre-emergence herbicidal action against VIOTR
Procedure, shortened: (§2)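 Dosages of 320 g/ha or less; pre-emergence; WP or EC in aqueous spray, 0.5% additive, 600 l/ha; greenhouse; visual % effect after ~3 wk relative to control pots.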

[3] = test system: Alopecurus myosuroides (ALOMY); assay: Post-emergence herbicidal action against ALOMY; conditions: visual rating about 3 weeks after treatment vs untreated controls (100% = plants have died, 0% = like control plants)
Procedure, shortened: as §1

Setaria viridis (SETVI) [4] = assay: Pre-emergence herbicidal action against SETVI; conditions: dosage 320 g/ha
Procedure, shortened: as §2

[5] = test system: Abutilon theophrasti (ABUTH); assay: Post-emergence herbicidal action against ABUTH; conditions: visual rating about 3 weeks after treatment vs untreated controls (100% = plants have died, 0% = like control plants)
Procedure, shortened: as §1

[6] = test system: Matricaria inodora (MATIN); assay: Pre-emergence herbicidal action against MATIN
Procedure, shortened: as §2

Avena fatua (AVEFA) [7] = assay: Pre-emergence herbicidal action against AVEFA; conditions: 320 g/ha, visual scoring after about 3 weeks vs untreated controls
Procedure, shortened: as §2

Brassica napus (BRSNW) = conditions: crop plant compatibility, in comparison to untreated controls
Procedure, shortened: (§3)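 Crop injury rated visually in percent against untreated plants roughly 3 weeks after treatment (0% no effect, 100% plants dead). Compounds, as WP or EC with 0.5% additive in 600 l/ha water, were applied to the covering soil right after sowing; greenhouse growth. Suffixes a, b, c denote different dosages.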

Lolium rigidum (LOLRI) [8] = assay: Post-emergence herbicidal action against LOLRI
Procedure, shortened: as §1

Viola tricolor (VIOTR) [9] = assay: Post-emergence herbicidal action against VIOTR
Procedure, shortened: as §1

[10] = test system: Verconica persica (VERPE); assay: Pre-emergence herbicidal action against VERPE
Procedure, shortened: as §2

[11] = test system: Alopecurus myosuroides (ALOMY); assay: Pre-emergence herbicidal action against ALOMY; conditions: 320 g/ha; scored visually after about 3 weeks; 100% = plants have died
Procedure, shortened: as §2

[12] = test system: Amaranthus retroflexus (AMARE); assay: Pre-emergence herbicidal action against AMARE; conditions: visual scoring after about 3 weeks vs untreated controls
Procedure, shortened: as §2

Lolium rigidum (LOLRI) [13] = assay: Pre-emergence herbicidal action against LOLRI
Procedure, shortened: as §2

[14] = test system: Polygonum convolvulus (POLCO); assay: Post-emergence herbicidal action against POLCO
Procedure, shortened: as §1

[15] = test system: Echinochloa crus-galli (ECHCG); assay: Pre-emergence herbicidal action against ECHCG; conditions: dosage 320 g/ha
Procedure, shortened: as §2

[16] = test system: Echinochloa crus-galli (ECHCG); assay: Post-emergence herbicidal action against ECHCG
Procedure, shortened: as §1

[17] = test system: Amaranthus retroflexus (AMARE); assay: Post-emergence herbicidal action against AMARE
Procedure, shortened: as §1

Setaria viridis (SETVI) [18] = assay: Post-emergence herbicidal action against SETVI; conditions: dosage 320 g/ha
Procedure, shortened: as §1

Avena fatua (AVEFA) [19] = assay: Post-emergence herbicidal action against AVEFA; conditions: visual rating about 3 weeks after treatment
Procedure, shortened: as §1

[20] = test system: Verconica persica (VERPE); assay: Post-emergence herbicidal action against VERPE
Procedure, shortened: as §1

[21] = test system: Pharbitis purpurea (PHBPU); assay: Pre-emergence herbicidal action against PHBPU; conditions: dosage 320 g/ha
Procedure, shortened: as §2

[22] = test system: Polygonum convolvulus (POLCO); assay: Pre-emergence herbicidal action against POLCO; conditions: dosage 320 g/ha
Procedure, shortened: as §2

[23] = test system: Abutilon theophrasti (ABUTH); assay: Pre-emergence herbicidal action against ABUTH; conditions: 100% = plants have died
Procedure, shortened: as §2

Zea mays (ZEAMX) [24] = conditions: crop plant compatibility, effect vs untreated controls
Procedure, shortened: (§4)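 Foliar application at the one-leaf stage: WP/EC formulation, 0.5% additive, 600 l/ha water. Greenhouse-grown in sandy loam. Endpoint is visual % injury relative to untreated controls at about 3 weeks.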

Oryza sativa (ORYSA) [25] = conditions: crop plant compatibility, effect in comparison to untreated controls
Procedure, shortened: as §4

Zea mays (ZEAMX) [26] = conditions: pre-emergence, crop plant compatibility, in comparison to untreated controls
Procedure, shortened: as §3

Oryza sativa (ORYSA) [27] = conditions: pre-emergence, crop plant compatibility, in comparison to untreated controls
Procedure, shortened: as §3

[28] = test system: Triticum aestivum (TRZAS); conditions: pre-emergence, 80 g/ha, crop plant compatibility, in comparison to untreated controls
Procedure, shortened: as §3

[29] = test system: Triticum aestivum (TRZAS); conditions: crop plant compatibility, 80 g/ha, effect vs untreated controls
Procedure, shortened: as §4

[30] = 320 g/ha, visual rating about 3 weeks after treatment
[31] = Dosage column 320 g/ha (title prints 3200 g/ha), scored visually after about 3 weeks

Row | SMILES | Pre-emergence action against VIOTR in % (Viola tricolor (VIOTR) [2]; 320 g/ha, Viola tricolor) | Post-emergence action against ALOMY in % ([3]; 320 g/ha) | Pre-emergence action against AVEFA in % (Avena fatua (AVEFA) [7]) | Pre-emergence action against BRSNW in % (Brassica napus (BRSNW); 80 g/ha) | Post-emergence action against LOLRI in % (Lolium rigidum (LOLRI) [8]; dosage 320 g/ha) | Post-emergence action against VIOTR in % (Viola tricolor (VIOTR) [9]; 80 g/ha) | Post-emergence action against VIOTR in % (Viola tricolor (VIOTR) [9]; 320 g/ha) | Pre-emergence action against ALOMY [11] | Pre-emergence action against AMARE in % ([12]; 320 g/ha) | Pre-emergence action against LOLRI in % (Lolium rigidum (LOLRI) [13]; dosage 320 g/ha) | Post-emergence action against POLCO in % ([14]; dosage 320 g/ha) | Post-emergence action against ECHCG in % ([16]; dosage 80 g/ha) | Post-emergence action against ECHCG in % ([16]; dosage 320 g/ha) | Post-emergence action against AMARE in % [17, 30] | Post-emergence action against AVEFA in % (Avena fatua (AVEFA) [19]; 320 g/ha) | Post-emergence action against VERPE in % ([20]; 320 g/ha, VERPE) | Pre-emergence action against PHBPU in % [21] | Pre-emergence action against POLCO in % [22] | Post-emergence action against ZEAMX in % (Zea mays (ZEAMX) [24]; 80 g/ha) | Post-emergence action against ORYSA in % (Oryza sativa (ORYSA) [25]; 80 g/ha) | other results
1 | COC(=O)[C@@H](C)Oc1nn(-c2nc(F)ccc2F)c(-c2ccc(F)nc2)c1Br [Example I-319] | 100% | 90% | 100% | 20% | 80% | 80% | 90% | 100% | 100% | 100% | 80% | 80% | 90% | 80% | 80% | 80% | 90% | 90% | 10% | 0% | Post-emergence action against PHBPU in % ([1]; dosage 80 g/ha): 80%; Post-emergence action against PHBPU in % ([1]; dosage 320 g/ha): 90%; Pre-emergence action against VIOTR in % (Viola tricolor (VIOTR) [2]; dosage 80 g/ha): 100%; Post-emergence action against ALOMY in % ([3]; 80 g/ha): 90%; Pre-emergence action against SETVI in % (Setaria viridis (SETVI) [4]): 100%; Post-emergence action against ABUTH in % ([5]; 320 g/ha): 80%; Pre-emergence action against MATIN in % ([6]; dosage 320 g/ha): 90%; Post-emergence action against LOLRI in % (Lolium rigidum (LOLRI) [8]; dosage 80 g/ha): 80%; Pre-emergence action against VERPE in % ([10]; dosage 80 g/ha): 80%; Pre-emergence action against VERPE in % ([10]; dosage 320 g/ha): 90%; Pre-emergence action against LOLRI in % (Lolium rigidum (LOLRI) [13]; dosage 80 g/ha): 90%; Pre-emergence action against ECHCG in % [15]: 100%; Post-emergence action against SETVI in % (Setaria viridis (SETVI) [18]): 80%; Post-emergence action against AVEFA in % (Avena fatua (AVEFA) [19]; 80 g/ha): 80%; Pre-emergence action against ABUTH [23, 31]: 80%
2 | CCOC(=O)COc1nn(-c2ncccc2C(F)(F)F)c(-c2ccc(F)nc2)c1Cl [Example I-325] | 100% | 100% | 100% | 20% | 90% | 90% | 90% | 100% | 100% | 100% | 80% | 90% | 90% | 80% | – | 90% | 80% | 90% | 0% | 20% | Post-emergence action against PHBPU in % ([1]; dosage 320 g/ha): 80%; Pre-emergence action against VIOTR in % (Viola tricolor (VIOTR) [2]; dosage 80 g/ha): 90%; Post-emergence action against ALOMY in % ([3]; 80 g/ha): 80%; Post-emergence action against ABUTH in % ([5]; 80 g/ha): 80%; Post-emergence action against ABUTH in % ([5]; 320 g/ha): 90%; Pre-emergence action against MATIN in % ([6]; dosage 80 g/ha): 100%; Pre-emergence action against MATIN in % ([6]; dosage 320 g/ha): 100%; Pre-emergence action against ZEAMX in % (Zea mays (ZEAMX) [26]; 80 g/ha): 0%; Pre-emergence action against ZEAMX in % (Zea mays (ZEAMX) [26]; 320 g/ha): 0%; Pre-emergence action against AMARE in % ([12]; 80 g/ha): 100%; Post-emergence action against VERPE in % ([20]; dosage 80 g/ha): 80%; Pre-emergence action against ABUTH ([23]; 80 g/ha, scored visually after about 3 weeks vs untreated controls, 0% = like control plants): 90%; Pre-emergence action against ABUTH [23, 31]: 90%
3 | CCOC(=O)COc1nn(-c2ncccc2C(F)(F)F)c(-c2ccc(F)nc2)c1Br [Example I-335] | 100% | 100% | 80% | 0% | 90% | 80% | 90% | 80% | 90% | 90% | 80% | 80% | 90% | 80% | 90% | 90% | 80% | 90% | 0% | 0% | Pre-emergence action against ZEAMX in % (Zea mays (ZEAMX) [26]; 80 g/ha): 20%; Pre-emergence action against ORYSA in % (Oryza sativa (ORYSA) [27]; 80 g/ha): 0%; Pre-emergence action against BRSNW in % (Brassica napus (BRSNW); 320 g/ha): 0%; Pre-emergence action against VERPE in % ([10]; dosage 320 g/ha): 80%; Post-emergence action against POLCO in % ([14]; dosage 80 g/ha): 80%; Post-emergence action against AMARE in % ([17]; 80 g/ha, visual rating about 3 weeks after treatment vs untreated controls (100% = plants have died, 0% = like control plants)): 80%; Post-emergence action against SETVI in % (Setaria viridis (SETVI) [18]): 90%; Post-emergence action against VERPE in % ([20]; dosage 80 g/ha): 90%; Post-emergence action against ZEAMX in % (Zea mays (ZEAMX) [24]; 320 g/ha): 20%
4 | CCOC(=O)COc1nn(-c2ccnc(F)c2)c(-c2ccc(F)nc2)c1Br [III-01] | – | – | – | 0% | – | – | 80% | – | – | – | – | – | 80% | 80% | 80% | 80% | – | – | 0% | 0% | Pre-emergence action against ZEAMX in % (Zea mays (ZEAMX) [26]; 80 g/ha): 10%; Pre-emergence action against ZEAMX in % (Zea mays (ZEAMX) [26]; 320 g/ha): 20%; Pre-emergence action against ORYSA in % (Oryza sativa (ORYSA) [27]; 80 g/ha): 0%; Pre-emergence action against ORYSA in % (Oryza sativa (ORYSA) [27]; 320 g/ha): 0%; Pre-emergence action against TRZAS in % [28]: 0%; Post-emergence action against ZEAMX in % (Zea mays (ZEAMX) [24]; 320 g/ha): 0%; Post-emergence action against ORYSA in % (Oryza sativa (ORYSA) [25]; 320 g/ha): 0%; Post-emergence action against TRZAS in % [29]: 0%

— patent US20240041042A1, “1-(PYRIDYL)-5-AZINYLPYRAZOLE DERIVATIVES, AND THEIR USE FOR CONTROL OF UNDESIRED PLANT GROWTH” (Bayer Aktiengesellschaft, priority 2020, published 2024)
